One data set in a line: Rat IV cassette PK. The note with it: male, Sprague-Dawley, in vivo, 0.2 mg/kg.
A short description of a further data set: Rat plasma stability. The note with it: 4 h incubation; 37 °C.
Data set [1] can be described thus: Terminal brain and plasma levels from AHL studies.
For data set [2] the following is noted: rat, cited from earlier work.
In data set [3] the target is mGlu5 (Homo sapiens, UniProt P41594). The data set is described as follows: Allosteric agonism in cell lines over expressing mGlu5. The class given is cell-based.
Chain of mGlu5 (Homo sapiens, UniProt P41594) (P41594 21-1212): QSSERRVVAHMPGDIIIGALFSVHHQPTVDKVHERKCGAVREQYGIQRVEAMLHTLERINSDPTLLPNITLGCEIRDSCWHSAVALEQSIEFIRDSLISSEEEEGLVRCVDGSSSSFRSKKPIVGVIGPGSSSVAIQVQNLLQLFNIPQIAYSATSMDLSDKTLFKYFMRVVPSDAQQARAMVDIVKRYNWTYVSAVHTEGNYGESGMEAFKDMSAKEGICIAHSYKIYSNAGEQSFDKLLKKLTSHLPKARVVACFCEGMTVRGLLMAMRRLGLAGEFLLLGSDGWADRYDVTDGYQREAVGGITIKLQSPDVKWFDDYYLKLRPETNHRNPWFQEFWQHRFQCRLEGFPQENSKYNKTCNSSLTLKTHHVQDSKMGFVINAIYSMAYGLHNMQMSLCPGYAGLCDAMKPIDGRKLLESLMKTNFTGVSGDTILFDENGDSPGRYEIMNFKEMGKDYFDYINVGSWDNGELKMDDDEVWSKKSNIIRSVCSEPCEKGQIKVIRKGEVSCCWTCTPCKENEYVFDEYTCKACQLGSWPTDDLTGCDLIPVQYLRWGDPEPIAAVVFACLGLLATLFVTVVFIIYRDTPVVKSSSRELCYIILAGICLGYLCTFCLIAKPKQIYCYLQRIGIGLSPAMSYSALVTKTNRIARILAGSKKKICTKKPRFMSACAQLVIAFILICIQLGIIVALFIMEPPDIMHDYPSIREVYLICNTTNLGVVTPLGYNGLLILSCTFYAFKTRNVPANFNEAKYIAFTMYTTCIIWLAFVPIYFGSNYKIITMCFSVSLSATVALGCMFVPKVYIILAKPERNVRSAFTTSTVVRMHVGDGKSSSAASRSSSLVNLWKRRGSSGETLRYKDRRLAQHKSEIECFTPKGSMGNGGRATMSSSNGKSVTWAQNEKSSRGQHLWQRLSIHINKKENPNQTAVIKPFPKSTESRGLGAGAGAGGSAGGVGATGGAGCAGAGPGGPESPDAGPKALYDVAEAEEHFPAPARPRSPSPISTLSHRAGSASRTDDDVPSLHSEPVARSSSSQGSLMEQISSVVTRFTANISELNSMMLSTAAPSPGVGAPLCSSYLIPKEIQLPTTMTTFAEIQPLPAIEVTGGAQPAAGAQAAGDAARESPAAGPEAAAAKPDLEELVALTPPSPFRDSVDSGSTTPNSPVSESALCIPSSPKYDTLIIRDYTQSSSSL
The target in data set [4] is mGlu5 (Rattus norvegicus, UniProt P31424). Nature of the data set: Allosteric agonism in rat astrocytes. The class given is cell-based. The following applies: mGlu5 endogenously expressed.
Chain of mGlu5 (Rattus norvegicus, UniProt P31424) (P31424 21-1203): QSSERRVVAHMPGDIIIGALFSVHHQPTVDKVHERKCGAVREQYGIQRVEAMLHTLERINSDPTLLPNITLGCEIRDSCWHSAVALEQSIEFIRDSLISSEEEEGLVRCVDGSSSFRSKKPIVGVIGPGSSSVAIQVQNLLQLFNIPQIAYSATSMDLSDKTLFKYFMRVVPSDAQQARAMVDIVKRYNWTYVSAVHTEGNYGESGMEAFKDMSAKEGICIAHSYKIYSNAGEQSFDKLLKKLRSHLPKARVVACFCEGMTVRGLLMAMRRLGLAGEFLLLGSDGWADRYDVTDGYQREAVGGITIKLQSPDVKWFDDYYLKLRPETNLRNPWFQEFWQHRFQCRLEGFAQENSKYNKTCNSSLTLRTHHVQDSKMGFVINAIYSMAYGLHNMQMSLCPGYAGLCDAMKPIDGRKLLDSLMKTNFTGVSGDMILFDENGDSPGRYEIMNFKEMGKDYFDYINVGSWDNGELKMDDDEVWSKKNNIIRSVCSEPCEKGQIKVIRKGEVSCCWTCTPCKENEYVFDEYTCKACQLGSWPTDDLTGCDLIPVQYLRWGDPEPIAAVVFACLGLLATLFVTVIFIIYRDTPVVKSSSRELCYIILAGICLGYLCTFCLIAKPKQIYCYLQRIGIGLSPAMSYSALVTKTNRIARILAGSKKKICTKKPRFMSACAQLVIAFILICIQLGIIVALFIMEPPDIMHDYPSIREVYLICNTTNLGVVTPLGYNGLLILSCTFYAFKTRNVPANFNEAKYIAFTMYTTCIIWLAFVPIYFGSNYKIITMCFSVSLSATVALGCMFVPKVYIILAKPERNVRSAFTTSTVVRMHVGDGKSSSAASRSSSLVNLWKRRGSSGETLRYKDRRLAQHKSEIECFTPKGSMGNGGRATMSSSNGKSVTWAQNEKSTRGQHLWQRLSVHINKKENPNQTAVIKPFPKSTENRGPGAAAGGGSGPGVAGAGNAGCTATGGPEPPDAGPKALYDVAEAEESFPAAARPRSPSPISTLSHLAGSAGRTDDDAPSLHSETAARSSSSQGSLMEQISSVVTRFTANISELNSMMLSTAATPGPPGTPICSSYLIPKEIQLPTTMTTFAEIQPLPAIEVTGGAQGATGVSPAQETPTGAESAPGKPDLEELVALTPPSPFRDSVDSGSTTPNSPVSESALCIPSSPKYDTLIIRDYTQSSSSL
Data set [5] can be described thus: Stability in vehicle formulation. The class given is physicochemical. The following applies: 20% β-CD pH 6, 4 mg/mL, up to five days.
Another data set deals with mGlu1-4,6-8. Nature of the data set: mGlu family selectivity. The class given is cell-based. The note with it: selectivity versus other mGlu family members.
The test system of data set [6] is 68 distinct GPCRs, ion channels and transporters. The data set is described as follows: Broad panel ancillary screen. The class given is binding. The note with it: 68 targets, Eurofins Inc.
A further data set relates to major CYP450 enzymes. The data set is described as follows: CYP450 inhibition.
Data set [7] can be described thus: Hepatic microsomal intrinsic clearance, rat. The note with it: predicted hepatic clearance.
Data set [8] is described as follows: Hepatic microsomal intrinsic clearance, human. The following applies: predicted hepatic clearance.
A short description of data set [9]: Simulated gastric fluid solubility and stability. The note with it: 1 h, 37 °C.
Data set [10] in a line: Rat modified Irwin study / acute CNS behavioural observation.
Setting [11] is: 30 days, 360 mg/kg/day, IND-enabling.

Each structure is given as a SMILES string. Read-outs that look alike come from different tables or passages of the source.

On to `CC(=O)N1CCCn2nc(COc3ccccc3F)cc21` [12a], for which the clearance (usually the rate of elimination divided by the concentration) in the data set “Rat IV cassette PK” is above 70 mL/min/kg. Further, in the data set “Rat plasma stability”, the rat plasma stability result is “stable”. Besides, the terminal brain concentration result in data set [1] (AHL 10 mg/kg PO, T90, rat) was “not detected”.

As for `O=C(c1ccc(F)cc1)N1CCc2nc(COc3ccccc3)oc2C1` [compound 1], the neurotoxicity result in data set [2] (14 day oral dose-limiting study, 450 mg/kg/day) is reported as “no neurotoxicity was observed”. Moreover, in [2] (14 day, 450 mg/kg/day), the exposure is on record as 273-440 μM-h. In data set [2] (setting [11]), the “Fluoro-Jade C staining” value is reported as “induced Fluoro-Jade C staining in a small number of rats” and the exposure is recorded as 253-416 μM-h.

In the case of `CC(=O)N1CCCn2nc(COc3ccccc3)cc21` [9a, 1-(2-(phenoxymethyl)-6,7-dihydropyrazolo[1,5-a]pyrimidin-4(5H)-yl)ethanone], the allosteric agonism result on mGlu5 [3] and at mGlu5 [4] was “no allosteric agonism was detected” throughout. In addition, the “decomposition in vehicle formulation” value in data set [5] is below 5%. Besides, the “FS at mGlu1-4,6-8” value in the data set on mGlu1-4,6-8 is listed as below 1.2. The “activity in broad panel ancillary screen” value in [6] is given as “no noted activity”. The figures for the clearance result in the data set “Discrete rat PK”, in “Discrete dog PK” and in “Rat IV cassette PK” were “moderate to high”, “moderate to high” and above 70 mL/min/kg, respectively. The bioavailability entry in the data set “Discrete dog PK” is reported as “low bioavailability”. The exposure result in the data set “Discrete dog PK” (IV and oral) is “poor exposure”. In the data set on major CYP450 enzymes, the 50% inhibitory concentration (IC50) (in general, the concentration needed to halve the response being measured) was above 30 µM. For the same compound, the rat plasma stability result in “Rat plasma stability” is recorded as “stable”. In addition, the “CLhep (r)” value in data set [7] was above 35 mL/min/kg. For the same compound, the “CLhep (h)” value in [8] is listed as above 12 mL/min/kg. In addition, the “decomposition in simulated gastric fluid” value in [9] was below 5%. In data set [1] (AHL 3 mg/kg PO, rat), the “terminal estimated unbound brain concentration” value was 199 nM. This compound also yielded a brain concentration in data set [10] (56.6 mg/kg, rat) of 113 µM. For the same compound, the safety window in data set [10] (modified Irwin concentrations versus AHL MED) is on record as at least 100 fold. Further, the “behaviour across 30 autonomic and somatomotor endpoints” value in [10] (modified Irwin, 30 mg/kg PO, rat) is listed as “no observable alterations in behavior”. The same compound yielded a concentration at 1 h in [10] (rat, in vivo, 30 mg/kg, est. Cb,u, 30 mg/kg PO, 1.0 h post-dose) of 36 µM.

In the case of `CC(=O)N1CCCn2nc(COc3cccc(F)c3)cc21` [12b], the “CLhep (r)” value in data set [7] is reported as above 35 mL/min/kg. In [8], the “CLhep (h)” value is listed as above 12 mL/min/kg.

Source of the values: paper PMC4634704 (Bioorganic & medicinal chemistry letters, 2015).
